Earlier results in US11730745B1, “Kit and new method of treatment for skin basal cell and squamous cell carcinoma” (priority 2022, dated 2023).

System: cancer
Details: additional treatment with Selenium

[Se] [Selenium]
Decrease of the frequency of cancer: more than 35%
